Measured values: ChEMBL document CHEMBL1147326, “Goniotriol from Goniothalamus giganteus” (J Nat Prod, 1989)
≈ marks a conversion by molar mass, not a printed value.

Legend:
[1] = system: Agrobacterium tumefaciens; assay: Antitumor activity against Agrobacterium tumefaciens-induced crown gall tumors in potato tuber by potato disk test; type: functional
[2] = system: MCF7; assay: Cytotoxicity against human MCF7 cells; type: functional; details: read-out: ED50 (the source's name)
[3] = system: HT-29; assay: Cytotoxicity against human HT-29 cells; type: functional; details: read-out: ED50 (the source's name)
[4] = system: Artemia; assay: Toxicity in brine shrimp; type: organism-based; details: in vivo
[5] = system: A549; assay: Cytotoxicity against human A549 cells; type: functional; details: read-out: ED50 (the source's name)

O=C1C=C[C@H](O)[C@H]([C@H](O)[C@H](O)c2ccccc2)O1 [GONIOTRIOL]
inhibition (INH) [1]: 38% | EC50 [2]: 5.9 µg/mL (≈ 23.6 µM) | EC50 [3]: > 10 µg/mL | LC50 [4]: 269 ppm | EC50 [5]: > 10 µg/mL
